We go through ten molecules from PubChem BioAssay (NCI).

Among the test systems are A498 renal; HCT-15 colon; NCI-H23 lung; RPMI-8226 leukemia; RXF 393 renal; UACC-257 melanoma; UACC-62 melanoma; UO-31 renal; COLO 205 colon; SN12C renal.
Common to all, as to assay: NCI tumour cell line growth inhibition, 48 h

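Grown in 96-well plates, cells were treated for 48 hours with each compound at five concentrations. Insufficient inhibition: endpoint recorded as highest concentration tested. Here, GI50 denotes the concentration required for 50% inhibition of growth. TGI denotes the concentration required for complete inhibition of growth.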

As for `CCOC(=O)NC(Nc1ccc(Cl)cn1)(C(F)(F)F)C(F)(F)F`, the TGI in the assay with A498 renal, with HCT-15 colon, in the assay on NCI-H23 lung, in the assay on RPMI-8226 leukemia, in the assay on RXF 393 renal and with UACC-257 melanoma was more than 100 µM each time. For the same molecule, the TGI with UACC-62 melanoma and in the assay on UO-31 renal was more than 100 µM in each case.
With `O=C(O)Cn1c2c(c3c(O)cccc31)C(=O)c1ccccc1-2`, the GI50 in the assay with A498 renal, in the assay with COLO 205 colon, in the assay on HCT-15 colon, in the assay with NCI-H23 lung, in the assay with RXF 393 renal and with SN12C renal was more than 100 µM each time. Further, the GI50 in the assay on UACC-257 melanoma and in the assay on UO-31 renal was more than 100 µM in each case. The TGI with A498 renal, in the assay on COLO 205 colon, in the assay on HCT-15 colon, in the assay on NCI-H23 lung, in the assay with RXF 393 renal and with SN12C renal was more than 100 µM in each case. Besides, the TGI in the assay on UACC-257 melanoma and in the assay on UO-31 renal was more than 100 µM throughout.
Regarding `CCCOC1OC(CS(=O)(=O)O)C(O)C(O)C1O` (stereo not given), the TGI in the assay on A498 renal, in the assay with COLO 205 colon, with HCT-15 colon, in the assay with NCI-H23 lung, with RPMI-8226 leukemia and in the assay on RXF 393 renal was more than 100 µM each time. Besides, the TGI in the assay with SN12C renal, in the assay on UACC-257 melanoma, with UACC-62 melanoma and in the assay with UO-31 renal was more than 100 µM each time.
For the molecule `CC(=O)N/C(=C\c1ccc(/C=C(\NC(C)=O)C2=NC3C(=O)c4ccccc4C(=O)C3N2)cc1)C1=NC2C(=O)c3ccccc3C(=O)C2N1` (stereo not given), the TGI in the assay with A498 renal, in the assay on COLO 205 colon, in the assay on HCT-15 colon, in the assay with NCI-H23 lung, with RPMI-8226 leukemia and with RXF 393 renal was more than 100 µM throughout. The TGI with SN12C renal was more than 100 µM; in the assay on UACC-257 melanoma, more than 100 µM; with UACC-62 melanoma, more than 100 µM; in the assay on UO-31 renal, 74.1 µM.
Consider `C=CCc1cccc(/C=N\N=C(/N)NO)c1O`, for which the TGI in the assay on A498 renal is more than 51.6 µM; with COLO 205 colon, more than 29.7 µM; with HCT-15 colon, more than 100 µM; in the assay with NCI-H23 lung, 26.5 µM; with RPMI-8226 leukemia it was 14.6 µM; with RXF 393 renal, 19.2 µM. Further, the TGI with SN12C renal is 33.5 µM; with UACC-257 melanoma, 30.6 µM; with UACC-62 melanoma, 7.11 µM; with UO-31 renal, 6.69 µM.
As to `CCCCN=C1OCc2[nH][nH]c(=O)c21`, the TGI in the assay with A498 renal, in the assay on COLO 205 colon, with HCT-15 colon, in the assay with NCI-H23 lung, with RPMI-8226 leukemia and in the assay on RXF 393 renal was more than 100 µM each time. Moreover, the TGI in the assay with SN12C renal, in the assay with UACC-257 melanoma, in the assay on UACC-62 melanoma and in the assay on UO-31 renal was more than 100 µM throughout.
Turning to `Cc1ccc(C2CC(c3cccc(Nc4ccncc4)c3)=NN2c2ccccc2)cc1` (stereo not given), the GI50 is 1.86 µM in the assay on A498 renal; 1.53 µM in the assay with NCI-H23 lung; 1.61 µM in the assay on RXF 393 renal; 1.69 µM with SN12C renal; 1.71 µM in the assay with UACC-62 melanoma; 1.41 µM in the assay with UO-31 renal. The TGI in the assay on A498 renal was found to be 5.63 µM; in the assay with NCI-H23 lung it was 2.97 µM; in the assay with RXF 393 renal it was 3.02 µM; with SN12C renal, 3.19 µM; with UACC-62 melanoma it was 3.12 µM; with UO-31 renal, 2.74 µM.
As to `CCCCCCCCCCCCCCCC(=O)OC1C(O)C(CO)OC(OC)C1NC(=O)N(CCCl)N=O` (stereo not given), the TGI in the assay on COLO 205 colon was 40.4 µM; with HCT-15 colon, 54.8 µM; with NCI-H23 lung it was 21 µM; in the assay with RPMI-8226 leukemia, more than 100 µM; with UACC-257 melanoma it was 31.5 µM; with UACC-62 melanoma, 17.1 µM. The TGI in the assay on UO-31 renal was 28.5 µM.
As for `O=[As](O)(O)c1ccc2nc3cc([As](=O)(O)O)ccc3nc2c1`, the TGI in the assay with A498 renal, in the assay on HCT-15 colon, in the assay on NCI-H23 lung, with RXF 393 renal, with SN12C renal and in the assay with UACC-257 melanoma was more than 100 µM each time. For the same molecule, the TGI in the assay with UACC-62 melanoma and with UO-31 renal was more than 100 µM each time.
As for `C[C@]12CC[C@@H]3c4ccc(OCCN5CCCC5)cc4CC[C@H]3[C@@H]1CCC2=O`, the TGI in the assay with A498 renal is more than 100 µM; in the assay with COLO 205 colon, 35.6 µM; in the assay with HCT-15 colon, 29 µM; in the assay with NCI-H23 lung, more than 100 µM; with RPMI-8226 leukemia it was more than 100 µM; with RXF 393 renal, more than 100 µM. Also, the TGI in the assay with UACC-257 melanoma is more than 100 µM; in the assay on UACC-62 melanoma, 69.8 µM; in the assay on UO-31 renal, 61.9 µM.
